Source: PMC8429170, “Ligand-binding and -scavenging of the chemerin receptor GPR1” (Cellular and Molecular Life Sciences: CMLS, 2021)
Ends that are not written are not given here. Peptide text beside a SMILES is read from it.

T1: GPR1-eYFP (human) (UniProt P46091)
T1 sequence: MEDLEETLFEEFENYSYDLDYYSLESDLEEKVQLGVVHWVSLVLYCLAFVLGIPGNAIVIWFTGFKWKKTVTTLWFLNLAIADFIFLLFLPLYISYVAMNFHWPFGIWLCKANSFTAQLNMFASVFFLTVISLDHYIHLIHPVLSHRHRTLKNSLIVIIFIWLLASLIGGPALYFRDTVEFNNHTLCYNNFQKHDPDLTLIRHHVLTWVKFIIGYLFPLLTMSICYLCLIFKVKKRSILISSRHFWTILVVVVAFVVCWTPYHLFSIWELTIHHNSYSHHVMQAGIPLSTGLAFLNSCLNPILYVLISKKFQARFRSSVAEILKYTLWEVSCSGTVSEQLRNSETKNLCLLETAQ


Legend:
GPR1 = target: T2, GPR1 (Homo sapiens, UniProt P46091); experiment: cell-based; settings: for Emax: COS-7
T2 construct: expressed in transfected cells; host or cells: COS-7, transient
T2 sequence (P32120 whole entry partner, one chain of several): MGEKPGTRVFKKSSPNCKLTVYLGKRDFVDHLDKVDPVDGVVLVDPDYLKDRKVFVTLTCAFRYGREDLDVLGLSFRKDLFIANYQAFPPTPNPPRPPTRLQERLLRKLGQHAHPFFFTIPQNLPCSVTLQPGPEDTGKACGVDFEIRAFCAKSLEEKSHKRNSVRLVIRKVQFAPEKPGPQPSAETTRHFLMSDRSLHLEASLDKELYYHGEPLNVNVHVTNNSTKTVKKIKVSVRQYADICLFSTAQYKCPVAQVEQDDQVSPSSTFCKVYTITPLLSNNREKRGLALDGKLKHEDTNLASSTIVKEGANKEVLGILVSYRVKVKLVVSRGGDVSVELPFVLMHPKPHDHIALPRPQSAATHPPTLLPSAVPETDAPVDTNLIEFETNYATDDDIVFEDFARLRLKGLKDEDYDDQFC
Method: Arrestin recruitment was characterized by measuring the bioluminescence resonance energy transfer (BRET) ratio between luciferase-tagged arrestin3 and either GPR1-eYFP or CMKLR1-eYFP as described previously. In brief, COS-7 cells in 75 cm^2 cell culture flasks were transiently transfected overnight with 7800 ng GPR1-eYFP or CMKLR1-eYFP in pVitro2 and 200 ng Rluc8-Arr3 in pcDNA3 using MetafectenePro according to the manufacturer’s protocol. […] For kinetic measurements, cells were stimulated with agonist in buffer or buffer alone, and fluorescence was measured for 20 min using a Tecan Infinite M 200 Reader (Tecan, Männerdorf, Switzerland) using the filter sets Green1 (YFP emission, luminescence 520–570 nm) and Blue1 (luciferase luminescence 370–480 nm). For concentration–response curves, cells were stimulated with agonist or blank, and luminescence was measured after 10 min. BRET signal was calculated as the ratio of fluorescence divided by luminescence, netBRET signal was calculated by subtracting the BRET signal of unstimulated wells from the respective samples.

GPR1-eYFP (human) = target: T1, GPR1-eYFP (human)

Molecule | EC50 of arrestin3 recruitment to GPR1-eYFP (BRET with Rluc8-Arr3, COS-7 cells) (GPR1-eYFP (human)) [nM] | EC50 (GPR1) [nM] | Emax (GPR1) [%]
C[C@@H]1NC(=O)[C@H](Cc2ccccc2)NC(=O)[C@H](CCC(N)=O)NC(=O)[C@H](NC(=O)[C@@H]2CCCN2C(=O)[C@H](Cc2ccccc2)NC(=O)[C@@H](N)Cc2ccc(O)cc2)CCSSC[C@@H](C(=O)O)NC(=O)[C@H](Cc2ccccc2)NC1=O [[4-9]-c(chemerin-9)] (HELM PEPTIDE1{Y.F.P.[O=C([C@@H](CCS[*:3])N[*:1])[*:2]].Q.F.A.F.C}$PEPTIDE1,PEPTIDE1,4:R3-9:R3$$$V2.0) |  | 3.3 | 
Chem^149-155 (chemerin-7) (peptide) | > 1000 |  | 
FPGQFAFS [Chem^150−157] |  | 22.4 | 87 ± 8
QRAGEDPHSFYFPGQFAF [Chem^139−156] |  | 2.95 | 99 ± 9
QRAGEDPHSFYFPGQFAFS [Chem^139−157] |  | 3.09 | 94 ± 7
YFPGQFAF [Chem^149−156] |  | 3.98 | 110 ± 16
QRAGEDPHSFYFPGQFAFS [Chem^139-157] | 3.1 |  | 
YFPGQFAF [Chem^149-156] | 4 |  | 
QRAGEDPHSFYFPGQFAF [Chem^139-156] | 2.9 |  | 

Now from value to molecule, other results behind:

EC50 of arrestin3 recruitment to GPR1-eYFP (BRET with Rluc8-Arr3, COS-7 cells) (GPR1-eYFP (human)) [nM] | Molecule | EC50 (GPR1) [nM] | Emax (GPR1) [%]
> 1000 | PGQFAFS [Chem^151-157] |  | 
22 | FPGQFAFS [Chem^150-157] |  | 
> 1000 | QFYSFFPAG [scr2C9] |  | 
